Data taken from patent publication US12180159B2, “Activators of the unfolded protein response” (The Board of Trustees of the University of Illinois, priority 2018, dated 2024).

Legend:
TDG cells (T47DERαD538G) = assay: Trypan Blue exclusion cell death assay, TDG cells; type: cell-based, human; settings: dose response, 24 hours, TDG-Luc cells
Description: TRYPAN BLUE: For decades, viable cells have been measured by their ability to exclude the dye Trypan Blue. […] Dead cells, which have lost membrane integrity, take up the dye and are blue. Thus, the percentage of dead cells is the percentage of cells that are Trypan Blue positive out of the total cell population. Quantitative assessment of Trypan Blue uptake uses a cell counter from Fisher. Since the assay is instrument based, there is no observer bias in determining the percentage of Trypan Blue positive cells.
TRYPAN BLUE ASSAYS: Assays are performed on cells in 6 well plates: 300,000 cells are plated in each well of a 6 well plate in 3 ml of medium. After 24 hours, the DMSO vehicle or the indicated compound is added (in 1000th of the vol.) The cells incubated for an additional 24 hours, and then harvested in 0.25 ml of trypsin, followed after harvest by 0.75 ml of medium. The cells are spun down and resuspended in 100-200 μl of medium left that is over the cell pellet (resuspend cells by pipetting up and down a few times). Add 10 μl to 10 μl of trypan blue. Then 10 μl is inserted into the counting slide. After inserting the slide into the Fisher TC20 counting is automatic (these many cells are needed because an accurate ratio of Trypan Blue positive to Trypan Blue negative cells requires about 200 cells in the field the instrument counts).
The Trypan Blue cell death assay was used to evaluate the ability of the active enantiomer of C-105 [(−)-105] to kill ERα positive TDG-Luc cells. For all studies, 300,000 TDG-Luc cells/well in 10% FBS were plated in a 6 well plate in triplicate. 24 hours after plating, the indicated concentrations the active enantiomer of (−)-105, or BHPI (top) ICI, or OHT (Lower left) or (+)-105 (lower right) were added. After 24 hours, the cells were harvested, and the % dead cells was determined by automated Trypan Blue exclusion using the Countess II automated hemocytometer. Percentage of viable cells was calculated by doing 100−(Cell Death %). (n=3±SEM).
TDG cells were incubated for 24 hours with 75 nM of BHPI or 75 nM of each of the indicated test compounds: 4, 6 and (±)-105 (enantiomers not separated). Cell death was determined using the instrument-based Trypan Blue exclusion assay. Structures are in the Synthesis section. […] (n=3±SEM).

[1] = test system: partially BHPI-resistant T47D clones 1, 3, 8, and 11; assay: Growth of partially BHPI-resistant T47D clones (MTS); type: cell-based, human; settings: 100 nM and 1 μM, 4 days
Procedure: ERα containing T47D human breast cancer cells able to survive in 1 μM BHPI were selected by clonal outgrowth. The effect of 100 nM and 1 μM BHPI and (−)-105 on growth of the (BHPI-sensitive) parental T47D cells and partially BHPI-resistant T47D clones 1, 3, 8, and 11 was evaluated. 4,000 cells/well were plated. Cell number was determined by MTS assay from a standard curve of absorbance versus cell number. […] Thus, in 4 days (−)-105 killed some, but not all, of the resistant cells.

[2] = test system: sp-XBP1 mRNA in T47D-luciferase cells; assay: Induction of spliced XBP-1 mRNA (qRT-PCR); type: cell-based, human; settings: 100 nM
Procedure: ERα positive T47D-luciferase, human breast cancer cells, were maintained for the indicated times in vehicle (Ctl, Control), 100 nM BHPI or 100 nM (−)-105. At the indicated times RNA was isolated and levels of sp-XBP1 mRNA quantitated by qRT-PCR. (n=3±SEM). […] Increased sp-XBP1 mRNA is a widely used marker for unfolded protein response (UPR) activation.

MCF-7 cells = type: cell-based
Procedure: (§1) FIG. 36. Discovery of SERK-F6 (also known as, C(−)-105, (−)-105, (R)-105, (−)-1, or (R)-1), a compound that kills ERα-positive cancer cells. a, Chemical structures of BHPI and racemic compound 1 (i.e. (±)-1), and their cytotoxic activity on T47D breast cancer cells after 24-hour incubations with concentrations as indicated in nM. Cells were stained with annexin V-FITC and PI dyes prior to analysis via flow cytometry. […] Cells were incubated with SERK-F6 or positive control, Raptinal, for 24 hours and then stained with annexin V-FITC and PI dyes and analyzed via flow cytometry. Error bars represent S.E.M of 3 independent replicates. c, IC50 values of SERK-F6 after 24-hour incubation against a panel of cancer cell lines grouped by their reported ERα status. Cell viability was measured by Alamar blue fluorescence and set relative to a vehicle control and a quantitative dead control treated with Raptinal. Error bars represent S.E.M of 3 independent experiments. d, Crystal violet staining of T47D cells after 24-hour incubations with compounds and concentrations as indicated. […] Cell number was determined by MTS.
(§2) Through a medicinal chemistry campaign, (±)-1 was discovered to show an unexpected cytotoxic phenotype (FIG. 36A). […] The dose dependent activity of SERK-F6 was determined against a panel of cancer cell lines (FIG. 36C and FIG. 37A) for ERα.

MDA-MB-231 cells = assay: Cell death of MDA-MB-231 cells (annexin V-FITC / PI flow cytometry); type: cell-based, human; settings: 24 hours
Procedure: as §1, §2

O=C1Nc2c(C(F)(F)F)cccc2C1(c1ccc(O)cc1)c1ccc(OC(F)(F)F)cc1 (single isomer, unassigned; (-)) [(−)-105, 3-(4-hydroxyphenyl)-3-(4-(trifluoromethoxy)phenyl)-7-(trifluoromethyl)indolin-2-one]
killing of TDG-Luc cells (TDG cells (T47DERαD538G)): superior to BHPI | growth of the BHPI-resistant clones [1]: completely blocked the growth of the resistant clones | UPR activation, induction of sp-XBP1 mRNA [2]: much stronger UPR hyper-activator and inducer of sp-XBP1 than BHPI | cytotoxicity to ERα positive MCF-7 cells (MCF-7 cells): cytotoxic | death of MCF-7 cells (MCF-7 cells; FIG. 10): induces dose-dependent death | effects in ERα negative MDA-MB-231 cells (MDA-MB-231 cells): minimal effects
